According to paper PMC8042727, “Apoptosis-like cell death upon kinetoplastid induction by compounds isolated from the brown algae Dictyota spiralis” (Parasites & Vectors, 2021):

Assays:
Type in all cases: cell-based
[1] = test system: Trypanosoma cruzi epimastigotes (Y strain); experiment: In vitro evaluation on T. cruzi epimastigotes (AlamarBlue, 72 h); details: for IC50: 72 h, read-out: IC50: epimastigote; for IC90: nonlinear regression of AlamarBlue curve, read-out: IC90 Trypanosoma cruzi: epimastigote
Procedure: Experiments including in vitro activity assays of isolated compounds 1–3 were performed against the promastigote and amastigote stages of Leishmania amazonensis (MHOM/BR/77/LTB0016) and the epimastigote stage of Trypanosoma cruzi (Y strain). Promastigotes of L. amazonensis were cultured in Schneider’s medium (Sigma-Aldrich, St. Louis, MO, USA). Typanosoma cruzi strain Y was cultured in liver Infusion tryptose (LIT) medium. The three molecules 1-3 were tested against epimastigotes of T. cruzi. Briefly, the molecules were dissolved in DMSO in 96-well plates and a serially diluted concentration was made in 100 μl of LIT medium supplemented with 10% heat-inactivated FBS. In all tests, a maximum of 1% DMSO was used to dissolve the highest dose of the compounds without inducing any effects on the parasites; epimastigotes in the logarithmic growth phase were then counted, adjusted to 5 × 10^5 cells/ml, distributed on the previous 96-well plate and incubated at 27 °C for 72 h. The plate was observed under an inverted microscope after 72 h of incubation and analyzed statistically as described for the leishmanicidal test. Hoechst dye is a blue-fluorescent dye that stains condensed chromatin of apoptotic cells. To detect DNA condensation, the chromatin condensation/dead cell apoptosis kit was used (Invitrogen, Thermo Fisher Scientific, Waltham, MA, USA). Cells were incubated in the presence of the compounds to be tested at IC90. The IC90 values were determined using nonlinear regression of the AlamarBlue® curve. After 24 h of incubation, cells were harvested and resuspended in medium, following which 1 μl of Hoechst 33342 stock solution was added to parasites and incubated for 20 min. Results were analyzed by cell imaging using the Evos FL cell imaging system (Thermo Fisher Scientific). The experiments were repeated using a double-stain apoptosis detection kit (Hoechst 33342/PI; Thermo Fisher Scientific). […] A positive control was also tested: miltefosine (L. amazonensis) and benznidazole (T. cruzi).

[2] = test system: Leishmania amazonensis promastigotes; experiment: Mitochondrial membrane potential (JC-1); details: L. amazonensis, IC90, 24 h, relative to negative control
Procedure: Promastigotes of L. amazonensis (2 × 10^6 cells/ml) and epimastigotes (5 × 10^5cells/ml) of T. cruzi were incubated for 24 h in the presence of the compounds to be tested, at IC90 and 26 °C, following which the cells were centrifuged, resuspended and transferred to black bottom 96-well plate. A 10-μl aliquot of JC-1 reagent (JC-1 Mitochondrial Membrane Potential Assay Kit; Cayman Chemical, Ann Arbor, MI, USA) was added to each well and the plates were incubated for 30 min. The switch of fluorescence from red to green emitted by both forms of the dye (monomer and aggregate) was measured using the Enspire microplate reader (PerkinElmer) at excitation/emission wavelengths of 560/595 and 485/535 for red and green, respectively; the decrease of the ratio was calculated as the percentage relative to the negative control. Cells images were captured using the Evos cell imaging system (Thermo Fisher Scientific), which is a fully integrated digital inverted microscope, at a magnification of ×40 and ×100. Untreated cells are used as the negative control, and miltefosine and benznidazole were used as the positive control.
Disruption of mitochondrial functions induced by the incubation of L. amazonensis and T. cruzi with compounds 1–3 was evaluated using the mitochondrial membrane potential as a measure. JC-1 dye was used in this assay. In the case of normal mitochondrial membrane potential, the reactive dye will form aggregates that emit red fluorescence; a collapsed potential induces the monomeric form with green fluorescence. This parameter is expressed as the absolute red/green ratio of fluorescence. We considered the values of the negative controls to be the normal values, and therefore the collapse of mitochondrial membrane potential is expressed as a percentage (see Fig. 4a). This parameter is involved in energy storage and is an important indicator of cell health and viability.

Trypanosoma cruzi = experiment: ATP level (CellTiter-Glo); details: T. cruzi, IC90, 24 h, relative to negative control
Procedure: The CellTiter-Glo® luminescent cell viability assay (Promega, WI, USA) was used to quantify the adenosine triphosphate (ATP) concentration. Cells of the kinetoplastid strains (for both L. amazonensis [2 × 10^6 cells/ml] and T. cruzi [5 × 10^5cells/ml]) were incubated for 24 h with the compounds to be tested, at IC90 and 26 °C. After incubation, the cells were centrifuged and resuspended in 100 μl. To this volume, we added 100 μl of the reactive in white 96-well plates. After incubation, the luminescence signal was measured using the Enspire multimode plate reader. The decrease in ATP level was expressed as a percentage relative to the negative control. Miltefosine and benznidazole were tested as the positive control for L. amazonensis and T. cruzi, respectively.

[3] = test system: Leishmania amazonensis promastigotes; experiment: Plasma membrane permeability assay (SYTOX Green); details: L. amazonensis, IC90, up to 6 h, compared to Triton X-100 (100%)
Procedure: This assay was performed to evaluate the cell’s membrane permeability. Following the manufacturer’s recommendations, promastigotes of L. amazonensis and epimastigotes of T. cruzi were incubated in phosphate saline buffer in the presence of 1 μM of SYTOX® Green nucleic acid stain (Life Technologies, Waltham, MA, USA) and the IC90 of the different test compounds to be tested. Variation in fluorescence was measured every 15 min for 6 h using the Enspire multimode plate reader at excitation/emission wavelengths of 485/520. The percentage of relative permeabilization was calculated in reference to complete permeabilization realized by adding Triton X-100 (Sigma-Aldrich). In addition, both L. amazonensis and T. cruzi cells were incubated for 24 h with compounds 1–3, miltefosine and benznidazole, and images were captured using the Evos cell imaging system.
One of the detectable cellular events of a necrotic cell death is the rupture of the plasma membrane. This event can be detected by evaluating plasma membrane permeabilization. We performed the SYTOX Green dye assay to detect effect of compounds 1–3 on membrane permeability. This green-fluorescence dye has a high affinity for DNA. Triton X-100 was used as a positive control in light of its known effect to cause 100% membrane permeabilization. Values of fluorescence were measured each 15 min for 6 h.

SMILES	IC50 [1]	IC90 [1]	decrease in mitochondrial potential [2]	decrease in ATP concentration (Trypanosoma cruzi)	percentage of membrane permeabilization [3]
CC(C)=CCC[C@](C)(O)[C@@H]1CC[C@@H](C)[C@@H]2CC=C(C)[C@H]2[C@@H]1O [Compound 1, pachydictyol C]	13.1 ± 3.62 µM	75.4 µM	34.0%	> 70%	< 20%
C=C1CC[C@@H]([C@@](C)(O)CCC=C(C)C)[C@@H](O)[C@@H]2C(C)=CC[C@@H]12 [Compound 2, dictyol E]	18.3 ± 0.91 µM	104 µM	40.7%	> 95%	< 20%
C=C(C)[C@H]1CC[C@]2(C)C[C@@H]3O[C@@]3(C)CC/C=C(\C)CC[C@@H]12 [Compound 3, 3,4-epoxy-7,18-dolabelladiene]	35.3 ± 4.09 µM	140 µM	> 80%	> 95%	35%
